Tests used:
Experiment in all cases: Kinase inhibitory activity profiling of RI-962@10 µM (406 kinases, Eurofins)
Assay type in all cases: biochemical
[1] = molecular target: panel of human kinases (kinase named in endpoint) (Homo sapiens, UniProt P54760); settings: 10 µM; read-out: Activity (%), EphB4(h)
Protocol: (§1) In vitro kinase activity assays were conducted through the Kinase Profiling Services provided by Eurofins (Eurofins, France). The protocol for the RIPK1 assay is briefly described as follows (Protocols for other kinases are very similar and can be found in http://www.eurofins.com/pharmadiscovery). RIPK1 kinase was incubated with the test compound in assay buffer containing 8 mM MOPS (pH 7.0), 0.2 mM EDTA, 250 μM […], 10 mM magnesium acetate, and 10 μM [γ-33P]-ATP for 15 min at room temperature. The reaction was initiated by the addition of the Mg/ATP mixture. After incubation for 40 min at room temperature, and the reaction was stopped by the addition of 3% phosphoric acid. A 10 μL portion of the reaction mixture was then spotted onto a P30 filter mat and washed four times for 4 min in 0.425% phosphoric acid and once in methanol prior to drying and scintillation counting.

[2] = molecular target: panel of human kinases (kinase named in endpoint) (Homo sapiens, UniProt Q13976); settings: 10 µM; read-out: Activity (%), PKG1α(h)
Protocol: as §1

[3] = molecular target: panel of human kinases (kinase named in endpoint) (Homo sapiens, UniProt Q9NWZ3); settings: 10 µM; read-out: Activity (%), IRAK4(h)
Protocol: as §1

[4] = molecular target: panel of human kinases (kinase named in endpoint) (Homo sapiens, UniProt Q52WX2); settings: 10 µM; read-out: Activity (%), SBK1(h)
Chain of panel of human kinases (kinase named in endpoint) (Homo sapiens, UniProt Q52WX2) (Q52WX2 whole entry): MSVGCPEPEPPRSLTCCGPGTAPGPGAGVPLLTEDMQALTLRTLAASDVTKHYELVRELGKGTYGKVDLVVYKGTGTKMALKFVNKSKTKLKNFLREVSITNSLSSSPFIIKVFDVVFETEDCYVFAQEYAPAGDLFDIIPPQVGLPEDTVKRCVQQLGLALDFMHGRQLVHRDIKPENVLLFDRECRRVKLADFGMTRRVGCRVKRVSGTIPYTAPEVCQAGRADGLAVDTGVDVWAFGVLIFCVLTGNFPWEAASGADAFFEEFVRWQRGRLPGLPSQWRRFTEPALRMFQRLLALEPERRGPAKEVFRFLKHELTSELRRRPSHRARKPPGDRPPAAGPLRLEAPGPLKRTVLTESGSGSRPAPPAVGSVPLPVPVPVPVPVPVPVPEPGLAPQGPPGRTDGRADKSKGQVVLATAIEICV
Protocol: as §1

[5] = molecular target: panel of human kinases (kinase named in endpoint) (Homo sapiens, UniProt Q8IVW4); settings: 10 µM; read-out: Activity (%), CDKL3(h)
Protocol: as §1

[6] = molecular target: panel of human kinases (kinase named in endpoint) (Homo sapiens, UniProt Q13882); settings: 10 µM; read-out: Activity (%), BRK(h)
Protocol: as §1

[7] = molecular target: panel of human kinases (kinase named in endpoint) (Homo sapiens, UniProt O75676); settings: 10 µM; read-out: Activity (%), MSK2(h)
Protocol: as §1

[8] = molecular target: panel of human kinases (kinase named in endpoint) (Homo sapiens, UniProt Q05655); settings: 10 µM; read-out: Activity (%), PKCδ(h)
Protocol: as §1

[9] = molecular target: panel of human kinases (kinase named in endpoint) (Homo sapiens, UniProt Q15759); settings: 10 µM; read-out: Activity (%), SAPK2b(h)
Chain of panel of human kinases (kinase named in endpoint) (Homo sapiens, UniProt Q15759) (Q15759 whole entry): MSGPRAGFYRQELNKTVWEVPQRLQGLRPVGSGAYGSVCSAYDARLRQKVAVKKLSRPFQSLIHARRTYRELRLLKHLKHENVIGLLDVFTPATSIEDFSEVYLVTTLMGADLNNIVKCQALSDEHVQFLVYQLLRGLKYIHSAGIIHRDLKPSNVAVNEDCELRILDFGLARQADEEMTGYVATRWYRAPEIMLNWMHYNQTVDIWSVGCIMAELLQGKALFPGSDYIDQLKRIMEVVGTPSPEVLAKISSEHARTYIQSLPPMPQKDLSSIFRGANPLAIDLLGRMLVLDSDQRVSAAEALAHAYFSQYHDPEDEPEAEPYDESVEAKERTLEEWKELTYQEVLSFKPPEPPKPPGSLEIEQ
Protocol: as §1

[10] = molecular target: panel of human kinases (kinase named in endpoint) (Homo sapiens, UniProt Q8IVH8); settings: 10 µM; read-out: Activity (%), MAP4K3(h)
Protocol: as §1

[11] = molecular target: panel of human kinases (kinase named in endpoint) (Homo sapiens, UniProt P08581, D1228H); settings: 10 µM; read-out: Activity (%), Met(D1246H)(h)
Protocol: as §1

[12] = molecular target: panel of human kinases (kinase named in endpoint) (Homo sapiens, UniProt O94921); settings: 10 µM; read-out: Activity (%), CDK14/cyclinY(h)
Protocol: as §1

[13] = molecular target: panel of human kinases (kinase named in endpoint) (Homo sapiens, UniProt Q9H4A3); settings: 10 µM; read-out: Activity (%), WNK1(h)
Protocol: as §1

[14] = molecular target: panel of human kinases (kinase named in endpoint) (Homo sapiens, UniProt O14920); settings: 10 µM; read-out: Activity (%), IKKβ(h)
Protocol: as §1

[15] = molecular target: panel of human kinases (kinase named in endpoint) (Homo sapiens, UniProt P08922); settings: 10 µM; read-out: Activity (%), Ros(h)
Protocol: as §1

[16] = molecular target: panel of human kinases (kinase named in endpoint) (Homo sapiens, UniProt O00444); settings: 10 µM; read-out: Activity (%), Plk4(h)
Chain of panel of human kinases (kinase named in endpoint) (Homo sapiens, UniProt O00444) (O00444 whole entry): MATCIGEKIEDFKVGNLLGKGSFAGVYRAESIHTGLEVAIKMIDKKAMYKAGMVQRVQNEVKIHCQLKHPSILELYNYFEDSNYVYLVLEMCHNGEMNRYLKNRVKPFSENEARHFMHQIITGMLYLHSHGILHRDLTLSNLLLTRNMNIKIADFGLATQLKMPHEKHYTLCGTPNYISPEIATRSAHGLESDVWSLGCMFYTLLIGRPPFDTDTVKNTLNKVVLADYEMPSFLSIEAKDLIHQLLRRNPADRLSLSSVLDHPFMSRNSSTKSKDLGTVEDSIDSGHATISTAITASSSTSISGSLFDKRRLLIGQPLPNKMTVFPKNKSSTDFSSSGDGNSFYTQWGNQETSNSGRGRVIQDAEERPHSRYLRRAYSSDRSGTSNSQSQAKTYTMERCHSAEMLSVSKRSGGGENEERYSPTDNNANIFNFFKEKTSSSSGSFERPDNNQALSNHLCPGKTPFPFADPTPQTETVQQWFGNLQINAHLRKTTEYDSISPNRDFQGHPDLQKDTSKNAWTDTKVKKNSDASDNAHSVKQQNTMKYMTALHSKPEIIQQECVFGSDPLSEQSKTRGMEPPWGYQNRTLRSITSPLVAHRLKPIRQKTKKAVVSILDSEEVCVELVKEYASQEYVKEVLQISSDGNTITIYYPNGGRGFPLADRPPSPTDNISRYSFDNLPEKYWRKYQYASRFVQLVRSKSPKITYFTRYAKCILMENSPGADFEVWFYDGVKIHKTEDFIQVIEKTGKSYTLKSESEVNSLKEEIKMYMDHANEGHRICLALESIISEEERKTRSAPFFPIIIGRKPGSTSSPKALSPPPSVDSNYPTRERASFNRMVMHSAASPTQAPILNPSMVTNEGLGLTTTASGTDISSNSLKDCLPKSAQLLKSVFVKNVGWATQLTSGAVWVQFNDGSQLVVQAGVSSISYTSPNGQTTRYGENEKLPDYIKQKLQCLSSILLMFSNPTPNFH
Protocol: as §1

[17] = molecular target: panel of human kinases (kinase named in endpoint) (Homo sapiens, UniProt Q8TF76); settings: 10 µM; read-out: Activity (%), Haspin(h)
Protocol: as §1

[18] = molecular target: panel of human kinases (kinase named in endpoint) (Homo sapiens, UniProt P10721, V560G); settings: 10 µM; read-out: Activity (%), cKit(V560G)(h)
Chain of panel of human kinases (kinase named in endpoint) (Homo sapiens, UniProt P10721, V560G) (P10721 26-976 V560G): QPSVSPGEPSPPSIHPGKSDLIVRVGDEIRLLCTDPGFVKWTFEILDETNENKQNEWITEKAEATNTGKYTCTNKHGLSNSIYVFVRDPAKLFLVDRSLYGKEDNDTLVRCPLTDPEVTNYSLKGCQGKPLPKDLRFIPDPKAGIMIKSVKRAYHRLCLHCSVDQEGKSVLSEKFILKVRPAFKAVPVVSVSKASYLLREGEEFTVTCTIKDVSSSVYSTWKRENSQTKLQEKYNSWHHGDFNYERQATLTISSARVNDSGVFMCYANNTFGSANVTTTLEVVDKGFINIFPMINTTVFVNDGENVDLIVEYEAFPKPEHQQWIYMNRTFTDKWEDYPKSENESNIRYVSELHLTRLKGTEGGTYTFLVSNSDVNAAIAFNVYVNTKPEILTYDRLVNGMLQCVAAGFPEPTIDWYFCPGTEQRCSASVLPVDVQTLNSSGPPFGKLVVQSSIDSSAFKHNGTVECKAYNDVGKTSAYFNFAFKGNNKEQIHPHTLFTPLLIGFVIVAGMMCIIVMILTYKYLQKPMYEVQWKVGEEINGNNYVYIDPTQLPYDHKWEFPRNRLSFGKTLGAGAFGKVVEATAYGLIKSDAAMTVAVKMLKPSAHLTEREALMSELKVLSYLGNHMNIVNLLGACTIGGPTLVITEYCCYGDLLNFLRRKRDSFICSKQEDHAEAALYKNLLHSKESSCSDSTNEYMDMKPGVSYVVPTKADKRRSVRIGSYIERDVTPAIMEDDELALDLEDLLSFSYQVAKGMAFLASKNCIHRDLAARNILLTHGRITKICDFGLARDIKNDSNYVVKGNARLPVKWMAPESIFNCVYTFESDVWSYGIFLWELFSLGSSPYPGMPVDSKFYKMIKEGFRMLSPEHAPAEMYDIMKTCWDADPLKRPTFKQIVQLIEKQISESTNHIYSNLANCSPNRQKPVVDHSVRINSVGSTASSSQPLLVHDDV
Protocol: as §1

[19] = molecular target: panel of human kinases (kinase named in endpoint) (Homo sapiens, UniProt P49761); settings: 10 µM; read-out: Activity (%), CLK3(h)
Protocol: as §1

[20] = molecular target: panel of human kinases (kinase named in endpoint) (Homo sapiens, UniProt P08581, Y1230D); settings: 10 µM; read-out: Activity (%), Met(Y1248D)(h)
Protocol: as §1

[21] = molecular target: panel of human kinases (kinase named in endpoint) (Homo sapiens, UniProt Q8NG66); settings: 10 µM; read-out: Activity (%), NEK11(h)
Chain of panel of human kinases (kinase named in endpoint) (Homo sapiens, UniProt Q8NG66) (Q8NG66 whole entry): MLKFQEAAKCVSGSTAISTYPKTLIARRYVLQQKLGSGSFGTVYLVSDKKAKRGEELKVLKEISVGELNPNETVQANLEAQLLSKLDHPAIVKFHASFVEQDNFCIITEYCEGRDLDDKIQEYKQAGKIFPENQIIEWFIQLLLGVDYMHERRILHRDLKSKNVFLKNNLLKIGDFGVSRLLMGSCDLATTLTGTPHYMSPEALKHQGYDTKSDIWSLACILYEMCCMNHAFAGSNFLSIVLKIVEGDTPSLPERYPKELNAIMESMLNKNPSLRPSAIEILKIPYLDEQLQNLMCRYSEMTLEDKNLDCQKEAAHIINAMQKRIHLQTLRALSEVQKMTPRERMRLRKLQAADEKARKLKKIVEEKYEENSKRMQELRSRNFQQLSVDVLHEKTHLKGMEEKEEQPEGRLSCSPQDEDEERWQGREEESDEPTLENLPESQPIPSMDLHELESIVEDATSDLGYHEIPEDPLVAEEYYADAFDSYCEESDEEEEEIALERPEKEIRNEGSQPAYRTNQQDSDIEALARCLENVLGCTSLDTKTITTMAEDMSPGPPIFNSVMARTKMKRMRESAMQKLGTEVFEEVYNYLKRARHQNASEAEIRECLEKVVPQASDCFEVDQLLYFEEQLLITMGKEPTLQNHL
Protocol: as §1

[22] = molecular target: panel of human kinases (kinase named in endpoint) (Homo sapiens, UniProt P57059); settings: 10 µM; read-out: Activity (%), SIK(h)
Protocol: as §1

[23] = molecular target: panel of human kinases (kinase named in endpoint) (Homo sapiens, UniProt O00238); settings: 10 µM; read-out: Activity (%), ALK6(h)
Protocol: as §1

[24] = molecular target: panel of human kinases (kinase named in endpoint) (Homo sapiens, UniProt P0C1S8); settings: 10 µM; read-out: Activity (%), Wee1B(h)
Protocol: as §1

[25] = molecular target: panel of human kinases (kinase named in endpoint) (Homo sapiens, UniProt Q9HBY8); settings: 10 µM; read-out: Activity (%), SGK2(h)
Chain of panel of human kinases (kinase named in endpoint) (Homo sapiens, UniProt Q9HBY8) (Q9HBY8 whole entry): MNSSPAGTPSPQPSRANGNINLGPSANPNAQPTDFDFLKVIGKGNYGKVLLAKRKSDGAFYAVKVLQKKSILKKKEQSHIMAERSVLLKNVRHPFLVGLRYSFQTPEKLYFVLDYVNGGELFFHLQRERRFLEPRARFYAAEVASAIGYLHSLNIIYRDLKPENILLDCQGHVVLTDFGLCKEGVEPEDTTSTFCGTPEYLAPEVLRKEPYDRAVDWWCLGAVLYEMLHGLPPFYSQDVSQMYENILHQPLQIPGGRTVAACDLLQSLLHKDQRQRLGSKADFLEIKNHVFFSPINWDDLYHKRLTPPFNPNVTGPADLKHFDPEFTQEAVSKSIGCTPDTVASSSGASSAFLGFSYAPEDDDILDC
Protocol: as §1

[26] = molecular target: panel of human kinases (kinase named in endpoint) (Homo sapiens, UniProt Q04759); settings: 10 µM; read-out: Activity (%), PKCθ(h)
Protocol: as §1

Chain of panel of human kinases (kinase named in endpoint) (Homo sapiens, UniProt P54760) (P54760 16-987): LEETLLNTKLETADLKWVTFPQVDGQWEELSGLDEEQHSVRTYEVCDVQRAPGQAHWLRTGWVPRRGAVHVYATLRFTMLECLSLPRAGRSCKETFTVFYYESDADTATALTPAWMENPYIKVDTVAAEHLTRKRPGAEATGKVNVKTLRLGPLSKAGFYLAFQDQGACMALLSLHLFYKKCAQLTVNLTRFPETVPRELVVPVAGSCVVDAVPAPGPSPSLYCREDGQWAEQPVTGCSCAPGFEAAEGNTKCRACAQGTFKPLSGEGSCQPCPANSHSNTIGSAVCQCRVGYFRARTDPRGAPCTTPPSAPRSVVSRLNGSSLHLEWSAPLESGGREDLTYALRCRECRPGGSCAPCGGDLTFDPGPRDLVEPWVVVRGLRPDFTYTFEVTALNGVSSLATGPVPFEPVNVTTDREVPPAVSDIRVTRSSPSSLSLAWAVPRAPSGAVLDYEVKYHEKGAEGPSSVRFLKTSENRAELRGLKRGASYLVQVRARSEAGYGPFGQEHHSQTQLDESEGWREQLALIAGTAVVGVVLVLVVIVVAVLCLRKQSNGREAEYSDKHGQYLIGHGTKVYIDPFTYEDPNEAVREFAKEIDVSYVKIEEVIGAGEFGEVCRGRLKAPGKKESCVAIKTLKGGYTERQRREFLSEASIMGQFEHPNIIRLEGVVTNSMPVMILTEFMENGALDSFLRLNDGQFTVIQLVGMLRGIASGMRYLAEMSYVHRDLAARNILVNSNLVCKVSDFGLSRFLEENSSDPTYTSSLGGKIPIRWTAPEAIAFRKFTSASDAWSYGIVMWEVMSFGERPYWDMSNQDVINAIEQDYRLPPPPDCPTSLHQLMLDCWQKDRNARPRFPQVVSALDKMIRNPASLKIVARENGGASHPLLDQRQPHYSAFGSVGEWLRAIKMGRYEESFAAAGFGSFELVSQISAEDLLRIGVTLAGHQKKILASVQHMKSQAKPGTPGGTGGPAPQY

`CC(C)C(=O)Nc1nc2cc(-c3ccc4c(c3)c(C(=O)NC(C)c3ccccc3)cn4C)ccn2n1` (centres unmarked) [RI-962] gave an activity at 10 µM [1] of 90%, an activity at 10 µM [2] of 101% and an activity at 10 µM [3] of 79%. The activity at 10 µM [4] was 112%, the activity at 10 µM [5] was 84% and the activity at 10 µM [6] was 101%. The activity at 10 µM [7] was 94%, the activity at 10 µM [8] was 90% and the activity at 10 µM [9] was 84%. The activity at 10 µM [10] was 85%, the activity at 10 µM [11] was 134% and the activity at 10 µM [12] was 91%. For the same compound, the activity at 10 µM [13] was 75%, the activity at 10 µM [14] was 88% and the activity at 10 µM [15] was 106%. For the same compound, the activity at 10 µM [16] was 88%, the activity at 10 µM [17] was 107% and the activity at 10 µM [18] was 95%. For the same compound, the activity at 10 µM [19] was 94%, the activity at 10 µM [20] was 110% and the activity at 10 µM [21] was 89%. The activity at 10 µM [22] was 137%, the activity at 10 µM [23] was 95% and the activity at 10 µM [24] was 95%. It also gave an activity at 10 µM [25] of 120% and an activity at 10 µM [26] of 131%.
